Results: patent US12077503B2, “Substituted cyclic amides and their use as herbicides” (FMC CORPORATION, priority 2015, dated 2024)

What was measured:
Type in all cases: in vivo
corn (Zea mays) [1] = assay: Test G Post-Emergence Protocol; conditions: Zea mays, post-emergence, 312 h; for plant injury at 15.625 g/ha: 15.625 g ai/ha, evaluated after 13 days (100=total damage to plant; 0=no damage to plant), read-out: Corn damage rating; for plant injury at 62.5 g/ha: 62.5 g ai/ha, read-out: Corn damage rating (100=total damage to plant; 0=no damage to plant); for plant injury at 62.5 g/ha / plant injury at 250 g/ha: evaluated after 13 days; for plant injury at 250 g/ha: 250 g ai/ha, read-out: damage to plant, Corn (100=total damage to plant; 0=no damage to plant)
Method in brief: (§1)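 Damage was rated 13 days after treatment from 0 (none) to 100 (plant killed). Compound was applied as a spray at 15.625, 62.5 or 250 g/ha in 50:50 acetone/water containing 0.5% Tween 20, onto 8-day-old potted plants kept in a glasshouse (24/16 °C, 14 h light, 65% humidity).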

[2] = test system: redroot pigweed (Amaranthus retroflexus); assay: Test G Post-Emergence Protocol; conditions: Amaranthus retroflexus, post-emergence, 312 h; for pest or weed control at 15.625 g/ha: 15.625 g ai/ha, evaluated after 13 days (100=total damage to plant; 0=no damage to plant), read-out: Pigweed, Redroot damage rating; for pest or weed control at 62.5 g/ha: 62.5 g ai/ha, read-out: Pigweed, Redroot damage rating (100=total damage to plant; 0=no damage to plant); for pest or weed control at 62.5 g/ha / pest or weed control at 250 g/ha: evaluated after 13 days; for pest or weed control at 250 g/ha: 250 g ai/ha, read-out: damage to plant, Pigweed, Redroot (100=total damage to plant; 0=no damage to plant)
Method in brief: as §1

[3] = test system: giant foxtail (Setaria faberi); assay: Test G Post-Emergence Protocol; conditions: Setaria faberi, post-emergence, 312 h; for pest or weed control at 15.625 g/ha: 15.625 g ai/ha, evaluated after 13 days (100=total damage to plant; 0=no damage to plant), read-out: Foxtail, Giant damage rating; for pest or weed control at 62.5 g/ha: 62.5 g ai/ha, read-out: Foxtail, Giant damage rating (100=total damage to plant; 0=no damage to plant); for pest or weed control at 62.5 g/ha / pest or weed control at 250 g/ha: evaluated after 13 days; for pest or weed control at 250 g/ha: 250 g ai/ha, read-out: damage to plant, Foxtail, Giant (100=total damage to plant; 0=no damage to plant)
Method in brief: as §1

[4] = test system: velvetleaf (Abutilon theophrasti); assay: Test G Post-Emergence Protocol; conditions: Abutilon theophrasti, post-emergence, 312 h; for pest or weed control at 15.625 g/ha: 15.625 g ai/ha, evaluated after 13 days (100=total damage to plant; 0=no damage to plant), read-out: Velvetleaf damage rating; for pest or weed control at 62.5 g/ha: 62.5 g ai/ha, read-out: Velvetleaf damage rating (100=total damage to plant; 0=no damage to plant); for pest or weed control at 62.5 g/ha / pest or weed control at 250 g/ha: evaluated after 13 days; for pest or weed control at 250 g/ha: 250 g ai/ha, read-out: damage to plant, Velvetleaf (100=total damage to plant; 0=no damage to plant)
Method in brief: as §1

[5] = test system: ivy-leaved morning glory (Ipomoea hederacea); assay: Test G Post-Emergence Protocol; conditions: Ipomoea, post-emergence, 312 h; for pest or weed control at 15.625 g/ha: 15.625 g ai/ha, evaluated after 13 days (100=total damage to plant; 0=no damage to plant), read-out: Morningglory, Ivy-leaved damage rating; for pest or weed control at 62.5 g/ha: 62.5 g ai/ha, read-out: Morningglory, Ivy-leaved damage rating (100=total damage to plant; 0=no damage to plant); for pest or weed control at 62.5 g/ha / pest or weed control at 250 g/ha: evaluated after 13 days; for pest or weed control at 250 g/ha: 250 g ai/ha, read-out: damage to plant, Morningglory, Ivy-leaved (100=total damage to plant; 0=no damage to plant)
Method in brief: as §1

[6] = test system: barnyardgrass (Echinochloa crus-galli); assay: Test G Post-Emergence Protocol; conditions: Echinochloa crus-galli, post-emergence, 312 h; for pest or weed control at 15.625 g/ha: 15.625 g ai/ha, evaluated after 13 days (100=total damage to plant; 0=no damage to plant), read-out: Barnyardgrass damage rating; for pest or weed control at 62.5 g/ha: 62.5 g ai/ha, read-out: Barnyardgrass damage rating (100=total damage to plant; 0=no damage to plant); for pest or weed control at 62.5 g/ha / pest or weed control at 250 g/ha: evaluated after 13 days; for pest or weed control at 250 g/ha: 250 g ai/ha, read-out: damage to plant, Barnyardgrass (100=total damage to plant; 0=no damage to plant)
Method in brief: as §1

corn (Zea mays) [7] = assay: Test G Pre-Emergence Protocol; conditions: Zea mays, pre-emergence, 312 h, evaluated after 13 days; for plant injury at 15.625 g/ha: 15.625 g ai/ha; for plant injury at 15.625 g/ha / plant injury at 250 g/ha: read-out: Corn damage rating (100=total damage to plant; 0=no damage to plant); for plant injury at 62.5 g/ha: 62.5 g ai/ha, 100=total damage to plant, 0=no damage to plant, read-out: plant damage rating, Corn; for plant injury at 250 g/ha: 250 g ai/ha
Method in brief: (§2)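 Under a 24/16° C day/night regime with 14 h light and 65% humidity, sown pots were sprayed after one day with compound (15.625, 62.5 or 250 g/ha; 50:50 acetone/water, 0.5% Tween 20). Damage was assessed visually 13 days later, 0 to 100.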

[8] = test system: redroot pigweed (Amaranthus retroflexus); assay: Test G Pre-Emergence Protocol; conditions: Amaranthus retroflexus, pre-emergence, 312 h, evaluated after 13 days; for pest or weed control at 15.625 g/ha: 15.625 g ai/ha; for pest or weed control at 15.625 g/ha / pest or weed control at 250 g/ha: read-out: Pigweed, Redroot damage rating (100=total damage to plant; 0=no damage to plant); for pest or weed control at 62.5 g/ha: 62.5 g ai/ha, 100=total damage to plant, 0=no damage to plant, read-out: plant damage rating, Pigweed, Redroot; for pest or weed control at 250 g/ha: 250 g ai/ha
Method in brief: as §2

[9] = test system: giant foxtail (Setaria faberi); assay: Test G Pre-Emergence Protocol; conditions: Setaria faberi, pre-emergence, 312 h, evaluated after 13 days; for pest or weed control at 15.625 g/ha: 15.625 g ai/ha; for pest or weed control at 15.625 g/ha / pest or weed control at 250 g/ha: read-out: Foxtail, Giant damage rating (100=total damage to plant; 0=no damage to plant); for pest or weed control at 62.5 g/ha: 62.5 g ai/ha, 100=total damage to plant, 0=no damage to plant, read-out: plant damage rating, Foxtail, Giant; for pest or weed control at 250 g/ha: 250 g ai/ha
Method in brief: as §2

[10] = test system: velvetleaf (Abutilon theophrasti); assay: Test G Pre-Emergence Protocol; conditions: Abutilon theophrasti, pre-emergence, 312 h, evaluated after 13 days; for pest or weed control at 15.625 g/ha: 15.625 g ai/ha; for pest or weed control at 15.625 g/ha / pest or weed control at 250 g/ha: read-out: Velvetleaf damage rating (100=total damage to plant; 0=no damage to plant); for pest or weed control at 62.5 g/ha: 62.5 g ai/ha, 100=total damage to plant, 0=no damage to plant, read-out: plant damage rating, Velvetleaf; for pest or weed control at 250 g/ha: 250 g ai/ha
Method in brief: as §2

[11] = test system: ivy-leaved morning glory (Ipomoea hederacea); assay: Test G Pre-Emergence Protocol; conditions: Ipomoea, pre-emergence, 312 h, evaluated after 13 days; for pest or weed control at 15.625 g/ha: 15.625 g ai/ha, read-out: Morning-glory, Ivy-leaved damage rating (100=total damage to plant; 0=no damage to plant); for pest or weed control at 62.5 g/ha: 62.5 g ai/ha, 100=total damage to plant, 0=no damage to plant, read-out: plant damage rating, Morningglory, Ivy-leaved; for pest or weed control at 250 g/ha: 250 g ai/ha, read-out: Morningglory, Ivy-leaved damage rating (100=total damage to plant; 0=no damage to plant)
Method in brief: as §2

[12] = test system: barnyardgrass (Echinochloa crus-galli); assay: Test G Pre-Emergence Protocol; conditions: Echinochloa crus-galli, pre-emergence, 312 h, evaluated after 13 days; for pest or weed control at 15.625 g/ha: 15.625 g ai/ha, read-out: Barnyard grass damage rating (100=total damage to plant; 0=no damage to plant); for pest or weed control at 62.5 g/ha: 62.5 g ai/ha, 100=total damage to plant, 0=no damage to plant, read-out: plant damage rating, Barnyardgrass; for pest or weed control at 250 g/ha: 250 g ai/ha, read-out: Barnyardgrass damage rating (100=total damage to plant; 0=no damage to plant)
Method in brief: as §2

| Structure (SMILES) | plant injury at 15.625 g/ha (corn (Zea mays) [1]) | plant injury at 62.5 g/ha (corn (Zea mays) [1]) | plant injury at 250 g/ha (corn (Zea mays) [1]) | pest or weed control at 15.625 g/ha [2] | pest or weed control at 62.5 g/ha [2] | pest or weed control at 250 g/ha [2] | pest or weed control at 15.625 g/ha [3] | pest or weed control at 62.5 g/ha [3] | pest or weed control at 250 g/ha [3] | pest or weed control at 15.625 g/ha [4] | pest or weed control at 62.5 g/ha [4] | pest or weed control at 250 g/ha [4] | pest or weed control at 15.625 g/ha [5] | pest or weed control at 62.5 g/ha [5] | pest or weed control at 250 g/ha [5] | pest or weed control at 15.625 g/ha [6] | pest or weed control at 62.5 g/ha [6] | pest or weed control at 250 g/ha [6] | plant injury at 15.625 g/ha (corn (Zea mays) [7]) | plant injury at 62.5 g/ha (corn (Zea mays) [7]) | further results |
| --- | --- | --- | --- | --- | --- | --- | --- | --- | --- | --- | --- | --- | --- | --- | --- | --- | --- | --- | --- | --- | --- |
| CN1C[C@H](c2ccc(F)c(C#N)c2)[C@@H](C(=O)Nc2ccccc2F)C1=O (racemic) [Compound 1468] | 10% | 10% | 10% | 10% | 0% | 30% | 30% | 70% | 70% | 0% | 0% | 10% | 10% | 0% | 10% | 10% | 50% | 40% | 0% | 0% | plant injury at 250 g/ha (corn (Zea mays) [7]): 0%; pest or weed control at 15.625 g/ha [8]: 0%; pest or weed control at 62.5 g/ha [8]: 0%; pest or weed control at 250 g/ha [8]: 0%; pest or weed control at 15.625 g/ha [9]: 80%; pest or weed control at 62.5 g/ha [9]: 80%; pest or weed control at 250 g/ha [9]: 90%; pest or weed control at 15.625 g/ha [10]: 0%; pest or weed control at 62.5 g/ha [10]: 0%; pest or weed control at 250 g/ha [10]: 0%; pest or weed control at 15.625 g/ha [11]: 0%; pest or weed control at 62.5 g/ha [11]: 0%; pest or weed control at 250 g/ha [11]: 0%; pest or weed control at 15.625 g/ha [12]: 10%; pest or weed control at 62.5 g/ha [12]: 70%; pest or weed control at 250 g/ha [12]: 80% |
| CN1C[C@@H](c2ccc(C(F)(F)F)cc2)[C@H](C(=O)Nc2ccon2)C1=O (racemic) [Compound 1506] | 0% | 0% | 0% | 0% | 0% | 0% | 0% | 0% | 0% | 0% | 0% | 0% | 0% | 0% | 0% | 0% | 0% | 0% | 0% | 0% | plant injury at 250 g/ha (corn (Zea mays) [7]): 0%; pest or weed control at 15.625 g/ha [8]: 0%; pest or weed control at 62.5 g/ha [8]: 0%; pest or weed control at 250 g/ha [8]: 0%; pest or weed control at 15.625 g/ha [9]: 0%; pest or weed control at 62.5 g/ha [9]: 0%; pest or weed control at 250 g/ha [9]: 0%; pest or weed control at 15.625 g/ha [10]: 0%; pest or weed control at 62.5 g/ha [10]: 0%; pest or weed control at 250 g/ha [10]: 0%; pest or weed control at 15.625 g/ha [11]: 0%; pest or weed control at 62.5 g/ha [11]: 0%; pest or weed control at 250 g/ha [11]: 0%; pest or weed control at 15.625 g/ha [12]: 0%; pest or weed control at 62.5 g/ha [12]: 0%; pest or weed control at 250 g/ha [12]: 0% |
